Measurements: US20100285053A1, “Immunosuppressive Extract Of Cordyceps Sinensis And Uses Thereof” (Dalhousie University, priority 2006, published 2010)

Tests used:
[1] = tested on: Adherent macrophages; test: Effect of MAPK inhibitors on IL-6 production by stimulated macrophages; type: cell-based, murine; conditions: 25 μM inhibitor 30 min pre-incubation, then ACE 3.4 mg/mL 48 hours
Procedure: Adherent macrophages were pre-incubated with media, vehicle (0.06% DMSO; Sigma), 25 μM ERK inhibitor, (PD98059; Calbiochem), or 25 μM p38 inhibitor (SB203580; Calbiochem) for 30 min at 37° C. before being treated with test agent. The cells were further incubated for 48 hours with ACE (3.4 mg/mL) or Zymosan (0.01%). DMSO was used as a vehicle control. IL-6 production was assayed using ELISA.

[2] = tested on: Peritoneal elicited macrophages; test: Endotoxin test: Polymyxin B pre-treatment, IL-6 production by macrophages; type: cell-based; conditions: Polymyxin B 20 μg/ml 30 min, then LPS 10 ηg/ml
Procedure: To test for LPS contamination, macrophages were pre-treated with Polymyxin B, followed by incubation with ACE. Peritoneal elicited macrophages were pre-incubated with media or LPS inhibitor Polymyxin B (Calbiochem) at 20 μg/ml for 30 min at 37° C. Cells were further incubated with LPS (10 ηg/ml) or ACE (3.4 mg/ml). […] Results are shown as levels of IL-6 production, which were measured using ELISA. Means and standard deviations of triplicate samples are shown. Data are representative of three separate experiments.

Row | Molecule | IL-6 production by ACE treated macrophages in presence of inhibitor [1] | reduction of LPS activity (IL-6 production) [2]
1 | COc1cccc(-c2cc(=O)c3ccccc3o2)c1N [PD98059] | marked decreases of IL-6 production | –
2 | C[S+]([O-])c1ccc(-c2nc(-c3ccncc3)c(-c3ccc(F)cc3)[nH]2)cc1 (stereo not drawn) [SB203580] | marked decreases of IL-6 production | –
3 | Polymyxin B | – | ~80%
